{"source": "patent US20230117205A1", "about": "“B7-H4 ANTIBODY-DRUG CONJUGATES FOR THE TREATMENT OF CANCER” (SEAGEN INC., priority 2021, published 2023)", "key": {"[1]": {"target": "T1, recombinant human B7-H4 protein (Homo sapiens, UniProt Q7Z7D3)", "T1 construct": "B7-H4 extracellular domain Phe29-Ala258 with a C-terminal 10-His tag", "T1 sequence (Q7Z7D3 29-258)": "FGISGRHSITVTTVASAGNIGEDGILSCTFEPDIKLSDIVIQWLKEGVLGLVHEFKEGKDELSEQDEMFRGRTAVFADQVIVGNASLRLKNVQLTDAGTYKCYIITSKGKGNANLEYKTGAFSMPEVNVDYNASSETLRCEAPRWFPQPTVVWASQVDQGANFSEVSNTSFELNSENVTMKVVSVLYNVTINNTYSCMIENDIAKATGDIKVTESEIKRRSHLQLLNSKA", "test": "BLI binding to recombinant human B7-H4 (monovalent and bivalent formats)", "conditions": "mAb compared with ADC"}, "[2]": {"tested_on": "MDA-MB-468 tumor and PBMC co-cultures", "test": "Tumor/PBMC co-culture assay", "assay_type": "cell-based, human", "conditions": "tumor/immune cell co-cultures", "protocol": "Tumor cells were transfected with Incucyte® Cytolight red lentivirus per manufacturer's instructions and stable polyclonal cell populations expressing mKate2 (red fluorescent protein, RFP) were generated under puromycin selection. Live-cell killing assays were performed by seeding RFP+ MDA-MB-468 tumor cells in 96-well flat bottom plates (Corning #3603) at a variety of densities (3,750-10,000 cells/well) and grown overnight. The following day, PBMCs isolated from healthy donors were added at 15:1 or 25:1 effector to target (E:T) ratios and cultures were treated with the indicated small molecule drugs or ADCs. To evaluate immune cell activation, supernatants were harvested between 120 and 144 hours post treatment and MIP-1β production was evaluated by Milliplex MAP Human cytokine/chemokine/growth factor panel A (12-plex) Immunology Multiple Assay (Millipore Sigma #HCYTA-60K-12C). […] Following the final wash, cell pellets were resuspended in 200 μL staining buffer and analyzed on an NXT Attune flow cytometer (ThermoFisher). Flow cytometry data were analyzed using FlowJo software and monocyte activation was quantified by measuring the MFI of CD86 staining on CD14+ monocytes within the RFP−/live/CD19−/CD3−/CD14+ gate."}, "[3]": {"tested_on": "F4/80+ macrophages in MDA-MB-468 xenograft tumors", "test": "IHC for F4/80+ macrophages in MDA-MB-468 xenograft tumors", "assay_type": "in vivo, NSG mice", "conditions": "single 3 mg/kg dose; 7 days after treatment", "protocol": "Specifically, female NSG mice were implanted with 1×10^6 MDA-MB-468 cells in 25% Matrigel H C subcutaneously. Once tumor volumes reached ˜250-300 mm^3, mice were randomized into treatment groups of 6 mice each and treated with a single 3 mg/kg dose of ADC or mAb, or vehicle control (20 mM Histidine buffer, pH 6.0) injected intraperitoneally (i.p.). Stock concentrations of ADC were diluted to desired concentration with 20 mM Histidine buffer, pH 6.0 or and stock concentration of mAb were diluted to desired concentration with 0.01% Tween20 in PBS. Twenty-four hours prior to dosing, each animal was treated with 10 mg/kg hIVIG. One week following treatment, tumors were harvested, cut in half, and processed for RNAseq (frozen at −80° C.) or formalin-fixed and paraffin-embedded for immunohistochemical (IHC) analysis.\nFor IHC, FFPE blocks were sectioned at 4 μm and sections were placed on charged slides. Slides were baked for 1 hr at 60° C. […]\nScanned images were analyzed with Halo image analysis software v. 3.1.1076 (Indica Labs), using the area quantification algorithm for CD11c and F4/80 and the cytonuclear algorithm for all other antibodies. […] Percent area of positive tissue, tumor and stroma were determined. […]"}}, "data": [{"substance": "SGN-B7H4V: ADC of fully human IgG1 anti-B7-H4 mAb conjugated to monomethyl auristatin E (MMAE) via a protease-cleavable valine-citrulline linker (vedotin)", "values": [{"measurement": "binding affinities for hB7-H4", "setting": "[1]", "value": "similar"}, {"measurement": "CD86 on CD14+ monocytes", "setting": "[2]", "value": "upregulation of the costimulatory molecule CD86"}, {"measurement": "release of MIP-1β/CCL4", "setting": "[2]", "value": "led to the release of the chemoattractant MIP-1β/CCL4"}, {"measurement": "proportion of F4/80+ macrophages in tumor nest and stroma", "setting": "[3]", "value": "increase in the proportion of F4/80+ macrophages"}]}]}
